Results published in ChEMBL document CHEMBL3603813, “Quinoline-based antimalarial hybrid compounds” (Bioorg Med Chem, 2015).

Experiments:
Plasmodium berghei [1] = test: Antimalarial activity against Plasmodium berghei infected in mouse assessed as reduction in parasitemia at 44 to 46 mg/kg, po; type: functional
Plasmodium falciparum [2] = test: Antiplasmodial activity against CQ-resistant Plasmodium falciparum FcB1; type: functional
Plasmodium falciparum [3] = test: Antiplasmodial activity against CQ-resistant Plasmodium falciparum FcM29; type: functional
Plasmodium berghei [4] = test: Antimalarial activity against Plasmodium berghei infected in mouse assessed as inhibition of parasite multiplication at 5 mg/kg/day administered for 4 days measured after 7 days; type: functional
Plasmodium falciparum [5] = test: Antiplasmodial activity against CQ-resistant Plasmodium falciparum Dd2; type: functional, organism-based
Plasmodium falciparum [6] = test: Antiplasmodial activity against CQ-sensitive Plasmodium falciparum D6; type: functional
[7] = Inhibition of beta-hematin formation; type: physicochemical
Plasmodium falciparum [8] = test: Antiplasmodial activity against CQ-resistant Plasmodium falciparum FCR3; type: functional, organism-based

## Clc1ccc2c(NCCCN3CCC(NC(c4ccccn4)c4ccccn4)CC3)ccnc2c1 [DM-1157]
Plasmodium berghei [1]
  inhibition (INH): >99.9%

## C[C@@H]1CC[C@H]2[C@@H](C)C(=O)O[C@@H]3O[C@@]4(C)CC[C@@H]1[C@]32OO4 [ARTEMISININ]
Plasmodium falciparum [2]
  Activity: 10 nM
Plasmodium falciparum [3]
  Activity: 18 nM

## Clc1ccc2c(Sc3ncnc4[nH]cnc34)ccnc2c1
Plasmodium berghei [4]
  inhibition in vivo at 5 mg/kg/day: 70%

## CCN(CC)CCCC(C)Nc1ccnc2cc(Cl)ccc12 (configuration not stated) [CHLOROQUINE]
Plasmodium falciparum [5]
  Activity: 102 nM
Plasmodium falciparum [6]
  Activity: 7 nM
[7]
  inhibition (INH): 94%
Plasmodium falciparum [2]
  Activity: 145 nM
Plasmodium falciparum [3]
  Activity: 735 nM

## CCCS(=O)(=O)N1CCN(c2ccnc3cc(Cl)ccc23)CC1
Plasmodium falciparum [8]
  IC50: 1200 nM

## O=C(CS(=O)(=O)N1CCN(c2ccnc3cc(Cl)ccc23)CC1)Nc1ccccc1
Plasmodium falciparum [8]
  IC50: 1200 nM

## Clc1ccc2c(NCCN3CCC(NC(c4ccccn4)c4ccccn4)CC3)ccnc2c1
Plasmodium berghei [1]
  inhibition (INH): >99.9%
